Measurements from US12655405B2, “Sequence specific degradation of single-stranded polynucleotides with CARD1 nuclease” (The Rockefeller University, priority 2020, dated 2026).

System: Tresu_2185 (CARD1)
Assay type: biochemical, Treponema succinifaciens
Experimental: The reactions were done in a reaction buffer (20 mM Tris-HCl, pH 7.5, 150 mM NaCl, 1 mM DTT, and 5 mM MnCl2, unless otherwise stated, with 250 nM CARD1 and 2.5 uM of cA4, with 2 μg M13 ssDNA (NEB) (FIG. 1b), 500 ng of non-linearized and linearized ΦX174 dsDNA (NEB) (FIGS. 1d, e, respectively) and 2 μg ΦX174 ssDNA (NEB) (FIG. 1a). cA4 and cA6 was obtained from Biolog Life Science Institute GmbH & Co. KG (Bremen, Germany). The reaction products were visualized by agarose gel electrophoresis. For the RNA oligo cleavage assay, 250 nM of a Cy3-labelled RNA oligo was added to the reaction. The reaction products were run on Mini-PROTEAN TBE-Urea precast gel (Bio-Rad), and visualized on a TYPHOON IMAGE SCANNER. For degradation of ssRNA or dsRNA ladders, 1 ug of either ssRNA ladder (NEB) or dsRNA ladder (NEB) was digested. The reaction products were visualized by agarose gel electrophoresis. At the indicated timepoints, all reaction were stopped by the addition of 25 mM of EDTA.

Tresu_2185 (CARD1), sequence (as listed by the source): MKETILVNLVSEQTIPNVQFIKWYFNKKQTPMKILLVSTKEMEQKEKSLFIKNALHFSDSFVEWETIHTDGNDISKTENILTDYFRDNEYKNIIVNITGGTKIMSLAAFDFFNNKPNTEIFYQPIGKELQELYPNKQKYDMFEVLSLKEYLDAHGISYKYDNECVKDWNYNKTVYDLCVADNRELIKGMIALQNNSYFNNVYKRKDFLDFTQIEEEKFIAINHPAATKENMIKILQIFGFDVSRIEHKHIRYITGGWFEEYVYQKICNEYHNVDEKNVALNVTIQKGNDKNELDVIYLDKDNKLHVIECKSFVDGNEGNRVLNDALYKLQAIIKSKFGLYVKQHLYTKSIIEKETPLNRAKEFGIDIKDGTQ

**Q.** Cyclic Tetra-Adenylate [cA4] was tested. Which “degradation of RNA oligo by CARD1 in the presence of the cyclic oligoadenylate” value (60 nucleotide RNA oligo) did it give?
**A.** degraded in the presence of cA4

**Q.** And the “degradation of ssDNA by Tresu_2185 on addition of the cyclic oligoadenylate” value (circular ΦX174 and M13 ssDNA, 250 nM CARD1, 2.5 uM cA, 5 mM MnCl2, agarose gel)?
**A.** resulted in the degradation of circular ΦX174 and M13 ssDNA

**Q.** And the “cleavage of dsDNA by Tresu_2185 on addition of the cyclic oligoadenylate” value (supercoiled or linearized ΦX174 dsDNA)?
**A.** did not promote cleavage
